Common to all, as to assay type: biochemical
Assay [1] addresses T1, Der-f allergens (Dermatophagoides farinae, UniProt P16311).
T1 construct: Dust is collected from Hoover™ vacuum cleaner bags and passed through a series of sieves down to 63 microns; from tissue; host or cells: house dust from vacuum cleaner bags, sieved to 63 microns
T1 sequence (P16311 99-321): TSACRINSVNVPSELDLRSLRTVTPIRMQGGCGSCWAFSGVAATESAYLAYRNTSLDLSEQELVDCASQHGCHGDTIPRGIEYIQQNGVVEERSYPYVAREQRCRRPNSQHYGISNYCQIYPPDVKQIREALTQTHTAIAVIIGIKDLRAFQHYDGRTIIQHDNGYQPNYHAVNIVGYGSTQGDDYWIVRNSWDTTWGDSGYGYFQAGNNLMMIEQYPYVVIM
The arrangement: Amount of Allergen remaining active after deactivant treatment: unit not given here. As to the method:
(§1) The ELISA protocol for Der-f and Der-p has been developed as follows as a measure of denaturing property for denaturants.
(§2) 1. Dust is collected from Hoover™ vacuum cleaner bags and passed through a series of sieves down to 63 microns.
(§3) 2. Clean petri dishes are labelled with the chemical to be tested (on the base). Three replicates are used for each treatment.
(§4) 3. Filter paper is used to line each dish and 0.2 g of dust is added to each dish onto the filter paper. The lid (or base, as dishes are inverted) is replaced and the dish is shaken to disperse the dust evenly over the filter paper.
(§5) 4. 2% aqueous solutions of deactivant were used except for the silver chloride composite where 0.05% was used instead. Immobilised tannic acid was used as a 1% dispersion. The hydrogenerated hop end was used at the 2% level (in the form of a 10% solution). Water-insoluble deactivants were emulsified with a sorbitone oleate surfactant (i.e. Tween). Hinokitol was used at 0.5% not 2%.
(§6) 5. The dust is sprayed with the corresponding treatment, 2 sprays are required for sufficient coverage (1 spray=1.5 ml).
(§7) 6. Leave uncovered at room temperature, in well aerated room, until filter paper is dry. This can take up to 4 hours.
(§8) 7. Empty dust in epindorfs labelled according to treatment.
(§9) 8. Add 1 ml of 5% Bovine Serum Albumen Phosphate Butter Saline—Tween BSA-PBS-T to each epindorf (5 times the weight of dust) (20 ml of BSA-PBS-T=1 g of BSA in 20 ml of PBS-T).
(§10) 9. Leave overnight in a refrigerator.
(§11) 10. Centrifuge for 5 minutes at 13,000 rpm.
(§12) 11. Decant the supernatant into a new epindorf labelled according to treatment.
(§13) 12. Centrifuge again for 5 minutes at 13,000 rpm.
(§14) 13. Make up dilutions of 1:10 and 1:100 by adding 100 μl of neat solution to 900 μl of 1% BSA-PBS-T (1:10). This is repeated using 100 μl of 1:10 dilution and add to 900 μl of 1% BSA-PBS-T for 1:100 dilution.
(§15) ELISA Protocol 2 for Der-f and Der-p: Indoor Biotechnologies
(§16) 1. Prepare samples and dilutions as in protocol
(§17) 2. Prepare 500 ml of 50 mM carbonate/bicarbonate buffer by dissolving 0.795 g Na2CO3 and 1.465 g NaHCO3 in 500 ml of distilled water. Check the pH is at 9.6. (This solution is kept in the refrigerator in a conical flask).
(§18) 11 ml of carbonate/bicarbonate buffer is added to the dispensing tray.
(§19) 11 μl of Der-f1 or Der-p1 monoclonal antibody
(§20) (Stored in freezer, epindorf in use is in the refrigerator) is added to the buffer. To ensure that all the antibody is removed from the tip, wash out the pipette tip by sucking up and down I the buffer solution, gently stirring to mix thoroughly.
(§21) 4. Pipette 100 μl of the antibody solution into each well of the microtiter plate, cover with a plate sealer and leave overnight at 4° C.
(§22) 5. Empty the plate by quickly inverting it over the sink, then dry by banging on a stack of paper towels.
(§23) 6. Add 200 μl of wash buffer to each well: PBS/0/05% tween (PBS-T)
(§24) 7. Repeat stages 5 and 6 once more (making a total of 2 washes).
(§25) 8. Make sure all the wells are dry, then add 100 μl of 1% BSA-PBS-T. Replace the plate sealer and incubate for 1 hour at room temperature*.
(§26) 9. Repeat steps 5 to 7 (2 washes).
(§27) This is mixed thoroughly.
(§28) 11. Add 100 μl aliquots of the allergen sample to the plate along with the standard allergen samples for the reference curve in duplicate. The standards usually go in the first two columns on the left hand side, with the least concentrated on top. Incubate for 1 hour.
(§29) 12. Follow stages 5 to 6, completing a total of 5 washes.
(§30) 13. Pour 11 ml of 1% BSA-PBS-T(0.11 g of BSA to 11 ml of PBS-T) to the dispensing tray. Add 11 μl of the biotinylated monoclonal antibody (refrigerator) and mix thoroughly.
(§31) 14. Pipette 100 μl into each well and incubate for 1 hour at room temperature.
(§32) 15. Empty plate and wash as described in stage 12. (5 washes).
(§33) 16. Add 11 μl of Streptavidin (freezer) to 11 ml of 1%BSA-PBS-T. Pipette 100 μl into each well and incubate for 30 minutes. Reserve any remaining solution in a vial.
(§34) 17. Empty plate and wash as described in stage 12 (5 washes).

The target in assay [2] is T1, Der-f allergens. Conditions: for Ratio of actives remaining after deactivant treatment over those remaining after tannic acid treatment: Examples 48-55, tested as above and compared with tannic acid. On the procedure:
as §1, §2, §3, §4, §5, §6, §7, §8, §9, §10, §11, §12, §13, §14, §15, §16, §17, §18, §19, §20, §21, §22, §23, §24, §25, §26, §27, §28, §29, §30, §31, §32, §33, §34

The target in another assay is T2, Der-p allergens (Dermatophagoides pteronyssinus, UniProt P08176).
T2 construct: Dust is collected from Hoover™ vacuum cleaner bags and passed through a series of sieves down to 63 microns; from tissue; host or cells: house dust from vacuum cleaner bags, sieved to 63 microns
T2 sequence (P08176 99-320): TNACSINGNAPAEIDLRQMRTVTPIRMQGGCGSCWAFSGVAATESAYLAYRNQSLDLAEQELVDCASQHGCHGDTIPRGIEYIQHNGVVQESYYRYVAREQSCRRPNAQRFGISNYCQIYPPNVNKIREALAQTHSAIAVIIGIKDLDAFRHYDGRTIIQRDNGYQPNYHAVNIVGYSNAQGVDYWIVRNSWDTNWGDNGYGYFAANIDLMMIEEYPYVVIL
Briefly: Deactivation of Der-p allergens (ELISA protocol), summary statement. As to the method: The test procedure in Examples 1 to 55 is as follows and is known as the ELISA protocol.
as §1, §15, §19
On the technique in general: ELISA stands for enzyme-linked immunosorbent assay.

Setting [3] is: Der-f, 0.2 g sieved house dust sprayed with 2% aqueous deactivant (AgCl composite 0.05%, immobilised tannic acid 1%, hinokitol 0.5%).
Setting [4] is: Der-f, compared with vacuuming only, no deactivant, 2% deactivant (AgCl composite 0.05%, immobilised tannic acid 1%, hinokitol 0.5%).

Counter-ions that a name gives are not always drawn. Like-named read-outs stand apart in the source and are kept apart here.

Regarding `N.N.O=S(=O)(O)O` [Ammonium sulphate, ammonium sulphate], on Der-f allergens [1], the “Amount of Allergen remaining active after deactivant treatment” value (shortened to “Amount of Allergen remaining active”) is recorded as 2750 and the “Ratio of remaining active allergen after Deactivant/Tannic Acid Treatment” value is given as 1.618. Besides, at Der-f allergens [2], the “Amount of active Allergen remaining after deactivant treatment” value (shortened to “Amount of active Allergen remaining”) was found to be 2325.

Take cyclodextrin: the “Ratio of remaining active allergen after Deactivant/Tannic Acid Treatment” value on Der-f allergens [1] turned out to be 2.265. For the same compound, the “Amount of Allergen remaining active” value on Der-f allergens [1] (setting [3]) stood at 3850.

In the case of `Cc1ccc(C(C)C)c(O)c1` [Thymol, 6-isopropyl-m-cresol], the “Ratio of remaining active allergen after Deactivant/Tannic Acid Treatment” value on Der-f allergens [1] turned out to be 0.523. The “Amount of Allergen remaining active” value at Der-f allergens [1] (setting [3]) was 725. The “Amount of active Allergen remaining” value at Der-f allergens [2] (setting [4]) is 1500. Further, at Der-f allergens [2], the “Ratio of actives remaining after deactivant treatment over those remaining after tannic acid treatment” value (shortened to “Ratio of actives remaining”) was 4.0.

For `CN1CCCC1=O` [N-methyl pyrrolidone, N-methylpyrrolidone], the “Ratio of remaining active allergen after Deactivant/Tannic Acid Treatment” value at Der-f allergens [1] was 1.362. In addition, the “Amount of Allergen remaining active” value on Der-f allergens [1] (setting [3]) was 1600. In addition, the “Ratio of actives remaining” value on Der-f allergens [2] turned out to be 4.0.

Consider `C=CCc1cc(OC)c2c(c1OC)OCO2` [Parsley Camphor], for which, at Der-f allergens [1] (setting [3]), the “Amount of Allergen remaining active” value came to 1225. In addition, the “Ratio of remaining active allergen after Deactivant/Tannic Acid Treatment” value on Der-f allergens [1] (Der-f, ratio below 1 = better than tannic acid) is listed as 0.883. Further, the “Amount of active Allergen remaining” value at Der-f allergens [2] (setting [4]) amounted to 2581.

As for `CCCCCCCCCCCCCCCC[N+](C)(C)C.[Cl-]` [hexadecyltrimethylammonium chloride], on Der-f allergens [1], the “Ratio of remaining active allergen after Deactivant/Tannic Acid Treatment” value is given as 2.264. In addition, on Der-f allergens [1] (setting [3]), the “Amount of Allergen remaining active” value was 4075. Further, the “Amount of active Allergen remaining” value on Der-f allergens [2] (setting [4]) worked out at 2863.

On to `O=CCCCC=O` [Glutaraldehyde, qlutaraldehyde], for which the “Amount of active Allergen remaining” value on Der-f allergens [2] (setting [4]) is given as 816. Besides, the “Ratio of actives remaining” value at Der-f allergens [2] amounted to 1.5. The “Effectiveness against Der-p allergens” value at Der-p allergens is given as “effective against Der-p allergens only”.

On to `CCCCC(CC)COC(=O)CC(C(=O)OCC(CC)CCCC)S(=O)(=O)[O-].[Na+]` (centres unmarked) [Aerosol OT], for which the “Ratio of remaining active allergen after Deactivant/Tannic Acid Treatment” value on Der-f allergens [1] turned out to be 1.298. Moreover, the “Amount of Allergen remaining active” value at Der-f allergens [1] (setting [3]) came out at 1525. For the same compound, on Der-f allergens [2] (setting [4]), the “Amount of active Allergen remaining” value is 4494.

In the case of `O=C1O[C@H]([C@@H](O)CO)C(O)=C1O` [L-Ascorbic Acid, L-ascorbic acid], the “Ratio of remaining active allergen after Deactivant/Tannic Acid Treatment” value at Der-f allergens [1] turned out to be 1.333. For the same compound, the “Amount of Allergen remaining active” value at Der-f allergens [1] (setting [3]) is 2000. In addition, the “Amount of active Allergen remaining” value at Der-f allergens [2] (setting [4]) came to 1438.

For `N=C(NCCCCCCNC(=N)NC(=N)Nc1ccc(Cl)cc1)NC(=N)Nc1ccc(Cl)cc1` [Chlorohexidine, 1,1′-hexamethylenebis [5-(4-chlorophenyl)]-biguanide], at Der-f allergens [1], the “Ratio of remaining active allergen after Deactivant/Tannic Acid Treatment” value is given as 0.991. Further, on Der-f allergens [1] (setting [3]), the “Amount of Allergen remaining active” value was determined as 1412.5. At Der-f allergens [2] (setting [4]), the “Amount of active Allergen remaining” value was 2281. In addition, the “Ratio of actives remaining” value at Der-f allergens [2] is 3.0.

Consider `NC(N)=O` [Urea, urea], for which the “Ratio of remaining active allergen after Deactivant/Tannic Acid Treatment” value on Der-f allergens [1] is 2.500. At Der-f allergens [1] (setting [3]), the “Amount of Allergen remaining active” value stood at 3750.

On to `O=C1c2ccccc2C(=O)c2ccccc21` [Anthraquinone sodium salt, the sodium salt of anthraquinone], for which the “Ratio of remaining active allergen after Deactivant/Tannic Acid Treatment” value at Der-f allergens [1] came to 0.765. Moreover, the “Amount of Allergen remaining active” value at Der-f allergens [1] (setting [3]) turned out to be 1530.

aluminium chlorohydrate: at Der-f allergens [1], the “Ratio of remaining active allergen after Deactivant/Tannic Acid Treatment” value is 2.233. Besides, on Der-f allergens [1] (setting [3]), the “Amount of Allergen remaining active” value is listed as 1675. Also, on Der-f allergens [2] (setting [4]), the “Amount of active Allergen remaining” value is 978.

For `CC(C)c1cccc(=O)c(O)c1` [Hinokitol, β-thujaplicin], at Der-f allergens [1], the “Ratio of remaining active allergen after Deactivant/Tannic Acid Treatment” value stood at 1.533. On Der-f allergens [1] (setting [3]), the “Amount of Allergen remaining active” value was 3065. The “Amount of active Allergen remaining” value on Der-f allergens [2] (setting [4]) is given as 2058.

Take `O=C(NCO)N(CO)C1(CO)C(=O)NC(=O)N1CO` (centres unmarked) [Germall II, diazolidinylurea]: the “Ratio of remaining active allergen after Deactivant/Tannic Acid Treatment” value at Der-f allergens [1] worked out at 0.685. On Der-f allergens [1] (setting [3]), the “Amount of Allergen remaining active” value was determined as 950. For the same compound, the “Ratio of actives remaining” value at Der-f allergens [2] turned out to be 1.5.

As for `CCCOCC(C)O` (centres unmarked) [1-propoxy-propanol-2], the “Ratio of remaining active allergen after Deactivant/Tannic Acid Treatment” value on Der-f allergens [1] amounted to 2.194. Moreover, the “Amount of Allergen remaining active” value at Der-f allergens [1] (setting [3]) is 3950. For the same compound, the “Amount of active Allergen remaining” value on Der-f allergens [2] (setting [4]) stood at 1233.

For the compound `O=C1C=CC(=O)O1` [Maleic anhydride, maleic anhydride], the “Ratio of remaining active allergen after Deactivant/Tannic Acid Treatment” value at Der-f allergens [1] was 0.875. For the same compound, the “Amount of Allergen remaining active” value on Der-f allergens [1] (setting [3]) amounted to 1312.5. Further, the “Amount of active Allergen remaining” value on Der-f allergens [2] (setting [4]) was found to be 783. Further, the “Ratio of actives remaining” value at Der-f allergens [2] came out at 1.0.

As to `O=C([O-])CS.[K+]` [Potassium thioglycolate, potassium thioglycolate], the “Amount of active Allergen remaining” value on Der-f allergens [2] (setting [4]) came to 3092. At Der-p allergens, the “Effectiveness against Der-p allergens” value is listed as “effective against Der-p allergens only”.

For the origin of these results see patent publication US6800247B1, “Deactivants for dust mite allergens” (priority 1997, dated 2004).
